{"source": "patent US9308161B2", "about": "“Substance for restoring normal co-expression and interaction between the LOX and NRAGE proteins” (BASF Beauty Care Solutions France S.A.S., priority 2005, dated 2016)", "key": {"transglutaminase": {"test_system": "transglutaminase", "experiment": "Transglutaminase immunolabelling intensity in reconstructed skin model (MIMESKIN)", "assay_type": "cell-based, human", "details": "positive control, calcium chloride 1.5 mM", "method": "The reconstructed skin model is in particular achieved according to the following protocol: • 0.5 to 1.10^6 fibroblasts of normal human skin are sown on a matrix substrate based on collagen/glycosaminoglycan/chitosan, and then grown in a nutritive medium, for example DMEM-Glutamax supplemented with 10% of calf serum; ascorbic acid, preferably at a final concentration of 1 mM; EGF (epidermal grow factor), preferably at a final concentration of 10 ng/ml; Normocin, preferably at a final concentration of 100 μg/ml, for 21 days. • 0.5 to 1.10^6 […], and then grown in a nutritive medium, for example DMEM-Glutamax/Ham F-12 (ratio 3:1 v/v) supplemented with calf serum, ascorbic acid, preferably at a final concentration of 1 mM; EGF (epidermal growth factor), preferably at a final concentration of 10 ng/ml; hydrocortisone, preferably at a final concentration of 0.4 μg/ml; umuline, preferably at a final concentration of 0.12 IU/ml; isuprel, preferably at a final concentration of […]; triiodothyronine, preferably at a final concentration of 2.10^−9M; adenine, preferably at a final concentration of 24.3 μg/ml; Normocin, preferably at a final concentration of 100 μg/ml. The culture was continued for 7 days in an immersed condition. The cultures were then placed at the air-liquid interface for 14 additional days in the same medium as the immersion culture, except for the calf serum, hydrocortisone, isuprel, triidothyronine and umuline.\nThe active ingredient (ephedra extract) is advantageously diluted in the culture media described above at 0.5 and 1% and used 3 days after the respective sowing of fibroblasts and keratinocytes (i.e. days 3 to 21 and days 24 to 42). […]\nViewing of immunolabellings is performed under photon microscopy (Axioskop2plus—Zeiss, Germany) and quantification of the transglutaminase immunolabellings was performed by image analysis (Lucia—Nilon, France) and the effects of the treatment with the active ingredient are evaluated (Holm-Sidak statistical test, p<0.01)."}, "LOX": {"test_system": "LOX", "experiment": "LOX messenger RNA by quantitative RT-PCR, keratinocytes in culture in the absence of calcium differentiation (Example 15)", "assay_type": "cell-based, human", "details": "mRNA relative to actine vs untreated control (NT); 24 hours; no calcium differentiation; 0.1% to 1% (v/v)", "method": "The actives were tested on normal human keratinocytes from young subjects, obtained by enzymatic extraction of human biopsies collected after surgical resection and cultivated as monolayers in a K-SFM (keratinocyte serum free medium with supplements) defined medium, supplemented with antibiotics at 37° C. under 5% CO2. The cells are sown at the second passage in 24-well plates, for example with an amount of 30 000 cells per cm^2 and grown until about 95% confluence. […] Active ingredients of different origins (vegetable, biotechnological origin or synthesized molecules for example) are tested from 0.1% volume/volume (v/v) to 1% (v/v). An active ingredient from vegetable origin is tested for example at 1% (v/v) and a synthesized molecule is tested for example at 0.1% (v/v) […] The obtained extracts are then filtered or distilled in order to recover the soluble fraction which is then filtered at 0.45 μm preferably. The biotechnological hydrolysates are obtained by fermentation of vegetable extracts in the presence of microorganisms, advantageously from the Lactobacillus or Saccharomyces family. These hydrolysates are then preferably filtered to 0.45 μm. The incubation is advantageously performed for 24 hours at 37° C. under 5% CO2, in a K-SFM medium without growth factors but with antibiotics. The negative controls are either the culture medium by itself, or the culture medium containing from 0.1% (v/v) to 1% (v/v) of the solvent used during the method for extracting the tested extracts. […] The untreated cells (NT control) are dry frozen at -80° C. after rinsing with pH 7.4 phosphate buffer. […] Modification of the expression of the genes is achieved by real time RT-PCR which measures the expression of each gene relative to actine (housekeeping gene) and expressed as a % of the untreated negative control (NT). […] According to the experimentation, the measuring threshold of C(T) (=cycle threshold) was set for T between 0.05 and 0.01 and then an arbitrary measuring unit is calculated for each gene according to the formula: […] […]"}, "[1]": {"test_system": "differentiated human keratinocytes", "experiment": "Apoptosis by TUNEL in monolayer cultures of differentiated human keratinocytes, LOX activity inhibited", "assay_type": "cell-based", "method": "The study was carried out on monolayer cultures of differentiated human keratinocytes at confluence. The effect of LOX on apoptosis was identified by inhibiting its activity through the addition of β-APN (0.02% w/v—(weight/volume)) under normal or proapoptotic conditions (thermal shock caused by exposure to a temperature of 45° C.±0.5° C. for 1 h 30 min).\nCell death by apoptosis is detected and quantified using the TUNEL (terminal deoxynucleotidyl transferase mediated dUTP nick end labeling) technique, which is based on labeling of the […] accompanying apoptosis.\nThe first step consists in labeling the DNA breaks with TdT (terminal deoxynucleotidyl transferase), which catalyzes the polymerization of the fluorescein-labeled nucleotides at the free 3′-OH end of the DNA. The second step consists in detecting the incorporated fluorescein with an alkaline phosphatase-conjugated anti-fluorescein antibody after incubation with the substrate for the latter.\nThe experiment is validated by means of a positive control obtained by fragmentation of the DNA with a DNase solution, and a negative control obtained by depositing phosphate buffer."}}, "note": "“And” between values parts separate entries of the source, which are not always exact repeats. Equal values may be shown once."}
{"smiles": "[Ca+2].[Cl-].[Cl-]", "note": "[Calcium, calcium chloride]", "values": [{"measurement": "INTENSITY Average", "setting": "transglutaminase", "value": 0.067}, {"measurement": "Variation vs NT", "setting": "transglutaminase", "value": 59, "unit": "%"}, {"measurement": "INTENSITY of transglutaminase labelling (single values)", "setting": "transglutaminase; day 28-42", "value": "0.061 and 0.076 and 0.064"}]}
{"smiles": "CC/C=C/CC(=O)OCC", "note": "[Ethyl trans 3-hexanoate]", "values": [{"measurement": "LOX modulation vs NT", "setting": "LOX", "value": 2.3}]}
{"smiles": "CCC(C)C(=O)OC", "note": "(stereo not drawn) [Methyl 2 methyl butyrate]", "values": [{"measurement": "LOX modulation vs NT", "setting": "LOX", "value": 2.5}]}
{"smiles": "OC[C@@H](O)[C@H](O)[C@@H](O)CO", "note": "[Xylitol]", "values": [{"measurement": "LOX modulation vs NT", "setting": "LOX", "value": 2.8}]}
{"smiles": "N#CCCN", "note": "[β-APN, β-aminopropionitrile]", "values": [{"measurement": "Without thermal shock (% of labeled cells)", "setting": "[1]; TUNEL, β-APN 0.02% w/v, normal conditions", "value": "56% of labeled cells"}, {"measurement": "With thermal shock (% of labeled cells)", "setting": "[1]; TUNEL, β-APN 0.02% w/v, thermal shock 45° C.±0.5° C. for 1 h 30 min", "value": "81% of labeled cells"}, {"measurement": "effect on apoptosis", "setting": "[1]; inhibition of the enzymatic activity of LOX by β-APN", "value": "substantial increase in apoptosis"}]}
